Results taken from patent publication EP0253662B1, “Pharmaceutical compositions” (ED. GEISTLICH SÖHNE AG FÜR CHEMISCHE INDUSTRIE, priority 1986, dated 1988).
≈ marks a conversion by molar mass, not a printed value.

Assays:
water-solubility = format: physicochemical; conditions: in water
Experimental: However, the water-solubility of both compounds is relatively low, namely I g/litre in the case of taurolidine and 8 g/litre in the case of taurultam. Relatively large quantities of the compounds are required where toxaemia is well established and even where the compounds are administered in large volumes by intravenous infusion, low solubility can limit their use. In particular, during treatment of patients suffering from septic shock and consequent renal insufficiency, administration of significant quantities of liquid (after an initial period of volume compensation) is contra-indicated and the intravenous infusion solution should be as concentrated as possible. Where glucose is present, this is also beneficial in such cases in order to support the brain cells.

[1] = intravenous infusion tolerance (vagotonic side effects); format: in vivo
Text: This is a surprising effect of considerable value in ensuring that taurolidine can be given intravenously at a rapid rate of infusion, for example in cases of endotoxin shock. In general, the overall intravenous tolerance of taurolidine is increased by the presence of glucose. The same advantages apply also to taurultam.

solubility (water-solubility) | SMILES | vagotonic side effects, such as meiosis, lachrymation, salivation, bradycardia and excitation ([1]; 2% aqueous taurolidine containing polyvinylpyrrolidone, administered intravenously, high rates of infusion) | vagotonic effects ([1]; administered in glucose solution rather than polyvinylpyrrolidone, intravenously)
8000 µg/mL (≈ 58.7 mM) | O=S1(=O)CCNCN1 [taurultam] | – | –
– | O=S1(=O)CCN(CN2CCS(=O)(=O)NC2)CN1 [taurolidine] | short duration vagotonic side effects occur | such vagotonic effects are not observed
